Measurements as given in the kinase profiling compilation of Christmann-Franck et al. (2016).

Columns and labels:
Experiment in all cases: KINOMEscan competition binding
Conditions in all cases: compound 10.0 µM
[1] = molecular target: CSNK1E (human) (UniProt P49674)
[2] = molecular target: EPHA7 (human) (UniProt Q15375)
[3] = molecular target: MATK (human) (UniProt P42679)
[4] = molecular target: ULK2 (human) (UniProt Q8IYT8)
[5] = molecular target: BRAF (human) (UniProt P15056)
[6] = molecular target: CSNK1G2 (human) (UniProt P78368)
[7] = molecular target: STK17A (human) (UniProt Q9UEE5)
[8] = molecular target: STK11 (human) (UniProt Q15831)
[9] = molecular target: ADCK4 (human) (UniProt Q96D53)
[10] = molecular target: PIK3CA (human) (UniProt P42336)
[11] = molecular target: AKT2 (human) (UniProt P31751)
[12] = molecular target: SIK1 (human) (UniProt P57059)
[13] = molecular target: PRKG1 (human) (UniProt Q13976)
[14] = molecular target: RPS6KA2 KD2 (human) (UniProt Q15349)
[15] = molecular target: PIM2 (human) (UniProt Q9P1W9)
[16] = molecular target: SRPK3 (human) (UniProt Q9UPE1)
[17] = molecular target: TAOK3 (human) (UniProt Q9H2K8)
[18] = molecular target: EPHA1 (human) (UniProt P21709)
[19] = molecular target: BRSK1 (human) (UniProt Q8TDC3)
[20] = molecular target: NEK2 (human) (UniProt P51955)
[21] = molecular target: RPS6KA6 KD2 (human) (UniProt Q9UK32)
[22] = molecular target: SBK1 (human) (UniProt Q52WX2)
[23] = molecular target: RIPK4 (human) (UniProt P57078)
[24] = molecular target: PDGFRB (human) (UniProt P09619)
[25] = molecular target: ZAP70 (human) (UniProt P43403)
[26] = molecular target: TESK1 (human) (UniProt Q15569)
[27] = molecular target: MAP3K9 (human) (UniProt P80192)
[28] = molecular target: PIK3CG (human) (UniProt P48736)
[29] = molecular target: EPHB1 (human) (UniProt P54762)
[30] = molecular target: DYRK2 (human) (UniProt Q92630)
[31] = molecular target: NLK (human) (UniProt Q9UBE8)
[32] = molecular target: CDK8 (human) (UniProt P49336)
[33] = molecular target: CAMK2A (human) (UniProt Q9UQM7)
[34] = molecular target: JAK3 JH1 catalytic (human) (UniProt P52333)
[35] = molecular target: RET (human) (UniProt P07949)
[36] = molecular target: IRAK4 (human) (UniProt Q9NWZ3)
[37] = molecular target: PIP5K1C (human) (UniProt O60331)
[38] = molecular target: CDKL1 (human) (UniProt Q00532)
[39] = molecular target: CRK2 (P.falciparum) (UniProt P61075)

STK17A (human), sequence (Q9UEE5 whole entry, looked up): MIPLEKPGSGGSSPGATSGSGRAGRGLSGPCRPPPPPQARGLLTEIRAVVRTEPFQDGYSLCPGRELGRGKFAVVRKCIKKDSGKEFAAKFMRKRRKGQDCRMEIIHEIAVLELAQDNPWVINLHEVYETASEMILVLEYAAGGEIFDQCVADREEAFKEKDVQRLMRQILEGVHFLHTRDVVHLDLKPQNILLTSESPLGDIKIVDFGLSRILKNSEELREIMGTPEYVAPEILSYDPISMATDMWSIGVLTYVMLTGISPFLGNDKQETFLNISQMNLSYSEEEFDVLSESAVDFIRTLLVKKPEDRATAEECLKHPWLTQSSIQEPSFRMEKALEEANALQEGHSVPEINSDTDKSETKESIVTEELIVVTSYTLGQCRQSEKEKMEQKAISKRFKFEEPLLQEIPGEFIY
ADCK4 (human), sequence (Q96D53 whole entry, looked up): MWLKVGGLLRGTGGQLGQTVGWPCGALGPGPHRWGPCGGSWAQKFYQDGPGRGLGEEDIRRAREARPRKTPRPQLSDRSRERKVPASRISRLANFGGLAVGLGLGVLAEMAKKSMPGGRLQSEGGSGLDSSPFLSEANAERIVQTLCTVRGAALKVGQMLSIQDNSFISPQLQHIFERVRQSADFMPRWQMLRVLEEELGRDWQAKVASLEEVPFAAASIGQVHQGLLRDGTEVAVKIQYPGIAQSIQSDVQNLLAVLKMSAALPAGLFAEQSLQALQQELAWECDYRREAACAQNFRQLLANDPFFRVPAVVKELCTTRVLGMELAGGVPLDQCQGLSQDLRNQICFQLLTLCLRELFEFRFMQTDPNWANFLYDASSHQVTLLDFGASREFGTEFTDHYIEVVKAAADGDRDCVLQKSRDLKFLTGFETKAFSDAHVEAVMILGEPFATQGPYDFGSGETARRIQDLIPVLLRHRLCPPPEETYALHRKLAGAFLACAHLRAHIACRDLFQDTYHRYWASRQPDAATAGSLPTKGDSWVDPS
JAK3 JH1 catalytic (human), sequence (P52333 whole entry, looked up): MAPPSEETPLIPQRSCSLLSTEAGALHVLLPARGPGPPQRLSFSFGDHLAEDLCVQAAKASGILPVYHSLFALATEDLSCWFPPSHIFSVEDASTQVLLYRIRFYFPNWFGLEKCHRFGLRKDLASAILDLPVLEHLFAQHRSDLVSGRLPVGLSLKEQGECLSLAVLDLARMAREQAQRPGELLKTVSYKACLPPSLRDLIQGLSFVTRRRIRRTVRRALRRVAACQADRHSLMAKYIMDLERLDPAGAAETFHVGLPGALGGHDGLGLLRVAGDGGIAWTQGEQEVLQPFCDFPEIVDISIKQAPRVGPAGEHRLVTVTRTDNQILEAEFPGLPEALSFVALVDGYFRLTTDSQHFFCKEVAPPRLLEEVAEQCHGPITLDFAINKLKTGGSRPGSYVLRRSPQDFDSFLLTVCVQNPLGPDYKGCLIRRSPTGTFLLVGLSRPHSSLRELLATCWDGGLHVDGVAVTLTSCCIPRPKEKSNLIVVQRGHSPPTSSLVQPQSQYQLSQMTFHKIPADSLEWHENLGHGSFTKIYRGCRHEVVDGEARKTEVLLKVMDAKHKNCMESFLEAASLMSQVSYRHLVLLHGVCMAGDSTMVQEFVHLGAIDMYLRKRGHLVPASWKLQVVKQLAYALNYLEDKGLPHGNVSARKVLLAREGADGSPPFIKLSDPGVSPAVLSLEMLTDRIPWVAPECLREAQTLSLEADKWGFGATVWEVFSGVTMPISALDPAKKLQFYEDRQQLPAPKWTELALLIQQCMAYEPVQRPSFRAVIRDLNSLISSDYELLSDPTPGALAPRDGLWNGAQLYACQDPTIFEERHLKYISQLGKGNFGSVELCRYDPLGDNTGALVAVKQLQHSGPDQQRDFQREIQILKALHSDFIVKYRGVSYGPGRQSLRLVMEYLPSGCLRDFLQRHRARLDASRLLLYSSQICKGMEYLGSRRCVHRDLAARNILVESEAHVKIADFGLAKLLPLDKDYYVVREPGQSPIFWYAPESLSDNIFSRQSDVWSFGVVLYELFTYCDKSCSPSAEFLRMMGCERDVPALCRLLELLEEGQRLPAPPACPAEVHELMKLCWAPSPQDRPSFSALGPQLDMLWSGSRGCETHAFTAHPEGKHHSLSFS
CSNK1G2 (human), sequence (P78368 whole entry, looked up): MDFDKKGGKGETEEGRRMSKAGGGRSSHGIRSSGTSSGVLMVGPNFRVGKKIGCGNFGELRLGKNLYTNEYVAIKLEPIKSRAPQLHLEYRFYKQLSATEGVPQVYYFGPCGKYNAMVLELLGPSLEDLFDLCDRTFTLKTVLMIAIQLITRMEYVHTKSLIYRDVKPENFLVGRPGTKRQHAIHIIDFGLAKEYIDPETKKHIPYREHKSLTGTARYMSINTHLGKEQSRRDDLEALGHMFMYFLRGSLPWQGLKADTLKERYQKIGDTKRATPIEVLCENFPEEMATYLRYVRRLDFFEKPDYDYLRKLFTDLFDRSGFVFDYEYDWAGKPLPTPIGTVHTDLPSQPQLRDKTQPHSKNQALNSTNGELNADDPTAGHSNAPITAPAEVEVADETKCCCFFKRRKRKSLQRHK
EPHA7 (human), sequence (Q15375 whole entry, looked up): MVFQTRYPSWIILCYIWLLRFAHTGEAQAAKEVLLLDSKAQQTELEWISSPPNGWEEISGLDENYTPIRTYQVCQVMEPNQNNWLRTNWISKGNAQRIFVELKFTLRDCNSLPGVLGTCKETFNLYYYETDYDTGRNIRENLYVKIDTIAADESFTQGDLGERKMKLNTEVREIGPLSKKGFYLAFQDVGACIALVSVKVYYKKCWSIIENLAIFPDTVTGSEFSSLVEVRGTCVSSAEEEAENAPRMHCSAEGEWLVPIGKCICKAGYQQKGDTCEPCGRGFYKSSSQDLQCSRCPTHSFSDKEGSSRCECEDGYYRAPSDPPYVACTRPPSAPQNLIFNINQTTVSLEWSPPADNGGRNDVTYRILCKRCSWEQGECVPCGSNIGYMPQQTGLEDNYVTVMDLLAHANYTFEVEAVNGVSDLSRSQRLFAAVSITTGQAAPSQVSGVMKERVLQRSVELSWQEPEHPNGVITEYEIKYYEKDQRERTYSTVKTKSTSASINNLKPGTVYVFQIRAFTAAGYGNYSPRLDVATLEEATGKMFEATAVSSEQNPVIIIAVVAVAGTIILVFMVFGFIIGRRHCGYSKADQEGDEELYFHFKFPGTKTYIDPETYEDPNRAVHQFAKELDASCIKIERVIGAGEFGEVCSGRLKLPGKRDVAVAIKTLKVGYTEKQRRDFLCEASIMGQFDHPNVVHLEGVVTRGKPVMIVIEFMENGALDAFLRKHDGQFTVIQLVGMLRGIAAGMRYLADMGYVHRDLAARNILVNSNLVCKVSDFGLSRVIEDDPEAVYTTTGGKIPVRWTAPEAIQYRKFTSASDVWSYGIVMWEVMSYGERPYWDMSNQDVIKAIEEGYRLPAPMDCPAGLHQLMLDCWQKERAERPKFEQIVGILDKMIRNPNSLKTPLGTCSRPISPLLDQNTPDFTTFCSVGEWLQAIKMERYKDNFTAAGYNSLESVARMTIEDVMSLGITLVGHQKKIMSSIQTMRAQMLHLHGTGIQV
RPS6KA6 KD2 (human), sequence (Q9UK32 whole entry, looked up): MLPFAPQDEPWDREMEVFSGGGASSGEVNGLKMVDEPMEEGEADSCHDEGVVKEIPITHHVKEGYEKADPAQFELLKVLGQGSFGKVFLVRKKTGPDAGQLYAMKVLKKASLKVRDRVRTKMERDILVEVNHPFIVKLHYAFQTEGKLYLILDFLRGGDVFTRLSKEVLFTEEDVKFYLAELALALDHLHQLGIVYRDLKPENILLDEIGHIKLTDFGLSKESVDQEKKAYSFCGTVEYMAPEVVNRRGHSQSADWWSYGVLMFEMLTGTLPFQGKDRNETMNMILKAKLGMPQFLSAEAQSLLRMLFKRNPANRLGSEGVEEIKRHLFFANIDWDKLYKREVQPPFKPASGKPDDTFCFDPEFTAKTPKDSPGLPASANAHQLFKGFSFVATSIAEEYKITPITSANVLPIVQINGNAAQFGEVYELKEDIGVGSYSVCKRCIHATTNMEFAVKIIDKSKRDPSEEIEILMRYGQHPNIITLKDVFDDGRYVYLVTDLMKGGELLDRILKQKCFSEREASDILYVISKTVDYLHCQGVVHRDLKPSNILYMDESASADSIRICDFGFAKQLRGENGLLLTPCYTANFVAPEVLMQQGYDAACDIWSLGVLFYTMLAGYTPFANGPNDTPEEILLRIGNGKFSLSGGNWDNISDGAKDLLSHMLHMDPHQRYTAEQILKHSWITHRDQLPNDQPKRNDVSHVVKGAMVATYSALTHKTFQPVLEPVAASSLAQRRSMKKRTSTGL
SIK1 (human), sequence (P57059 whole entry, looked up): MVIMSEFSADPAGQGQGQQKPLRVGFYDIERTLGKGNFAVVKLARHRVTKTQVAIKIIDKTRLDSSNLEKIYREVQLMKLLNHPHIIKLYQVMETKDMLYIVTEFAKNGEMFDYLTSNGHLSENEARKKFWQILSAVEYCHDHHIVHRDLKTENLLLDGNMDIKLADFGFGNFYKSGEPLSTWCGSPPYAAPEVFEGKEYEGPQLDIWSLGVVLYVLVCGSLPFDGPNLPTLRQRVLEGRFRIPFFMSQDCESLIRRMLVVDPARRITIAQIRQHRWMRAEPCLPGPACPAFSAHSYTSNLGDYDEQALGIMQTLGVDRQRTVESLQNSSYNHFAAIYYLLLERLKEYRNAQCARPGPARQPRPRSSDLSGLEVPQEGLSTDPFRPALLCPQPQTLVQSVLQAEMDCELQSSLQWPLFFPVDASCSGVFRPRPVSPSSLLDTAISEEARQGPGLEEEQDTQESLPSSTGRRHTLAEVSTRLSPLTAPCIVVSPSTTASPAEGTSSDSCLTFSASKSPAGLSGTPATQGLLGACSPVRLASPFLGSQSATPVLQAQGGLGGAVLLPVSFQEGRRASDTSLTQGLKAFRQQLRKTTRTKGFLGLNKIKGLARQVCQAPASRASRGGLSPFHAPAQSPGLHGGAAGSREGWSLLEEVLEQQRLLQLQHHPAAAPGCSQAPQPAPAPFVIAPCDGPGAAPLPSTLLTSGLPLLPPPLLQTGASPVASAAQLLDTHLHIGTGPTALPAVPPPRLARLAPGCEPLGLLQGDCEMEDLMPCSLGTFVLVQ

Row | kinase still bound, per cent of control [1] | kinase still bound, per cent of control [2] | kinase still bound, per cent of control [4] | kinase still bound, per cent of control [5] | kinase still bound, per cent of control [6] | kinase still bound, per cent of control [7] | kinase still bound, per cent of control [8] | kinase still bound, per cent of control [9] | kinase still bound, per cent of control [11] | kinase still bound, per cent of control [12] | kinase still bound, per cent of control [13] | kinase still bound, per cent of control [14] | kinase still bound, per cent of control [15] | kinase still bound, per cent of control [16] | kinase still bound, per cent of control [17] | kinase still bound, per cent of control [18] | kinase still bound, per cent of control [19] | kinase still bound, per cent of control [20] | kinase still bound, per cent of control [21] | kinase still bound, per cent of control [23] | SMILES | also measured
1 | 100% | 100% | 0.5% | 100% | 100% | 100% | 100% | 100% | 100% | 100% | 100% | 15% | 100% | 100% | 2% | 100% | 100% | 100% | 4.9% | 100% | COc1cc(N2CCN(C)CC2)ccc1Nc1ncc2c(n1)N(C)c1ccccc1C(=O)N2C | kinase still bound, per cent of control [3]: 100%; kinase still bound, per cent of control [10]: 100%; kinase still bound, per cent of control [22]: 8.9%; kinase still bound, per cent of control [24]: 100%; kinase still bound, per cent of control [25]: 100%; kinase still bound, per cent of control [26]: 100%; kinase still bound, per cent of control [27]: 100%; kinase still bound, per cent of control [28]: 31%; kinase still bound, per cent of control [29]: 100%; kinase still bound, per cent of control [30]: 100%; kinase still bound, per cent of control [31]: 100%; kinase still bound, per cent of control [32]: 100%; kinase still bound, per cent of control [33]: 32%; kinase still bound, per cent of control [34]: 100%; kinase still bound, per cent of control [35]: 100%
2 | 100% | 100% | 100% | 100% | 100% | 100% | 100% | 100% | 100% | 31% | 100% | 100% | 100% | 100% | 0.9% | 100% | 100% | 100% | 100% | 100% | C=CC(=O)Nc1ccc(CN(C(=O)Nc2c(Cl)c(OC)cc(OC)c2Cl)c2cc(Nc3ccc(N4CCN(C)CC4)cc3)ncn2)cc1 | kinase still bound, per cent of control [10]: 100%; kinase still bound, per cent of control [24]: 0%; kinase still bound, per cent of control [25]: 100%; kinase still bound, per cent of control [26]: 100%; kinase still bound, per cent of control [27]: 12%; kinase still bound, per cent of control [28]: 100%; kinase still bound, per cent of control [29]: 100%; kinase still bound, per cent of control [31]: 100%; kinase still bound, per cent of control [32]: 100%; kinase still bound, per cent of control [33]: 100%; kinase still bound, per cent of control [34]: 0.15%; kinase still bound, per cent of control [35]: 0.6%
3 | 100% | 100% | 100% | 100% | 100% | 100% | 100% | 100% | 100% | 100% | 100% | 100% | 100% | 100% | 100% | 100% | 100% | 100% | 100% | 100% | CS(=O)(=O)N1CCN(Cc2cc3nc(-c4cccc5[nH]ncc45)nc(N4CCOCC4)c3s2)CC1 | kinase still bound, per cent of control [3]: 100%; kinase still bound, per cent of control [10]: 0.15%; kinase still bound, per cent of control [22]: 100%; kinase still bound, per cent of control [24]: 100%; kinase still bound, per cent of control [25]: 100%; kinase still bound, per cent of control [26]: 100%; kinase still bound, per cent of control [27]: 100%; kinase still bound, per cent of control [29]: 100%; kinase still bound, per cent of control [30]: 100%; kinase still bound, per cent of control [31]: 100%; kinase still bound, per cent of control [32]: 100%; kinase still bound, per cent of control [33]: 100%; kinase still bound, per cent of control [34]: 100%; kinase still bound, per cent of control [35]: 100%

Row | SMILES | kinase still bound, per cent of control [1] | kinase still bound, per cent of control [2] | kinase still bound, per cent of control [4] | kinase still bound, per cent of control [5] | kinase still bound, per cent of control [6] | kinase still bound, per cent of control [7] | kinase still bound, per cent of control [8] | kinase still bound, per cent of control [9] | kinase still bound, per cent of control [11] | kinase still bound, per cent of control [12] | kinase still bound, per cent of control [13] | kinase still bound, per cent of control [14] | kinase still bound, per cent of control [15] | kinase still bound, per cent of control [16] | kinase still bound, per cent of control [17] | kinase still bound, per cent of control [18] | kinase still bound, per cent of control [19] | kinase still bound, per cent of control [20] | kinase still bound, per cent of control [21] | kinase still bound, per cent of control [23] | also measured
4 | N#CCNC(=O)c1ccc(-c2ccnc(Nc3ccc(N4CCOCC4)cc3)n2)cc1 | 100% | 96% | 60% | 74% | 100% | 0.2% | 61% | 33% | 76% | 62% | 100% | 71% | 100% | 18% | 100% | 100% | 100% | 77% | 52% | 100% | kinase still bound, per cent of control [3]: 85%; kinase still bound, per cent of control [36]: 64%; kinase still bound, per cent of control [37]: 54%; kinase still bound, per cent of control [38]: 60%; kinase still bound, per cent of control [22]: 46%; kinase still bound, per cent of control [24]: 2.2%; kinase still bound, per cent of control [25]: 91%; kinase still bound, per cent of control [26]: 100%; kinase still bound, per cent of control [27]: 45%; kinase still bound, per cent of control [39]: 100%; kinase still bound, per cent of control [28]: 2.4%; kinase still bound, per cent of control [29]: 91%; kinase still bound, per cent of control [30]: 76%; kinase still bound, per cent of control [31]: 86%; kinase still bound, per cent of control [32]: 100%; kinase still bound, per cent of control [33]: 26%; kinase still bound, per cent of control [34]: 0.3%; kinase still bound, per cent of control [35]: 50%
